Assay results: patent US7846930B2, “Diaryl-substituted tetrahydroisoquinolines as histamine H3 receptor and serotonin transporter modulators” (Janssen Pharmaceutica NV, priority 2007, dated 2010)
pKi: −log10 of the molar value. Counter-ions that a name gives are not always drawn.

Tests used:
[1] = target: T1, cloned human H3 receptors, stably expressed in SK-N-MC cells (Homo sapiens, UniProt Q9Y5N1); assay: H3 receptor binding
T1 construct: expressed in transfected cells
Description: Binding of compounds to the cloned human H3 receptors, stably expressed in SK-N-MC cells, was performed as described by Barbier, A. J. et al. (Br. J. Pharmacol. 2004, 143(5), 649-661).

[2] = target: T2, Rat brain SERT (Rattus norvegicus, UniProt P31652); assay: Rat brain SERT [3H]-citalopram binding; conditions: rat brain membranes, 0.6 nM [3H]-Citalopram, 60 min at 25° C.
T2 construct: A rat brain without cerebellum (Zivic Laboratories, Inc.-Pittsburgh, Pa.) was homogenized; tissue Zivic Laboratories, Inc; host or cells: rat brain without cerebellum, membrane preparation
T2 sequence (P31652 whole entry): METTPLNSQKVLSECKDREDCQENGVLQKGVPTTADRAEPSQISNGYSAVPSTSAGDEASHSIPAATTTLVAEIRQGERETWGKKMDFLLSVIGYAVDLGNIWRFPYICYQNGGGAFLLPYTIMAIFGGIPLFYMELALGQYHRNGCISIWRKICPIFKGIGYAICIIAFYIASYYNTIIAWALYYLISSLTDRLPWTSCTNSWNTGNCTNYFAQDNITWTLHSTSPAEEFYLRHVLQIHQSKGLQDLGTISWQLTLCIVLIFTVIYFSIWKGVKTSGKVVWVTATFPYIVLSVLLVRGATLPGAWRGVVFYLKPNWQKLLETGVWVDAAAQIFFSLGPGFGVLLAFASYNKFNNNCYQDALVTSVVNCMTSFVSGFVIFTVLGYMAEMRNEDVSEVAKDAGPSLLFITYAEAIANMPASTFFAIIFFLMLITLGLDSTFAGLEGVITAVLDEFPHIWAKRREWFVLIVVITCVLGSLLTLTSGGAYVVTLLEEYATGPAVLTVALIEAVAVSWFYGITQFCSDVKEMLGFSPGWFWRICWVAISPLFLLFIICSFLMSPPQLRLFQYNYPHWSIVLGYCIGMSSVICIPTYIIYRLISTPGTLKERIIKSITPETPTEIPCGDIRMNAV
Description: A rat brain without cerebellum (Zivic Laboratories, Inc.-Pittsburgh, Pa.) was homogenized in a 52.6 mM Tris pH 8/126.4 mM NaCl/5.26 mM KCl mixture and centrifuged at 1,000 rpm for 5 min. The supernatant was removed and re-centrifuged at 15,000 rpm for 30 min. Pellets were re-homogenized in a 52.6 mM Tris pH8/126.4 mM NaCl/5.26 mM KCl mixture. Membranes were incubated with 0.6 nM [^3H]-Citalopram plus/minus test compounds for 60 min at 25° C. and harvested by rapid filtration over GF/C glass fiber filters (pretreated with 0.3% polyethylenimine) followed by four washes with ice-cold buffer. Nonspecific binding was defined in the presence of 100 μM fluoxetine. IC50 values were determined by a single site curve-fitting program (GraphPad, San Diego, Calif.) and converted to Ki values based on a [^3H]-Citalopram Kd of 0.6 nM and a ligand concentration of 0.6 nM.

[3] = target: T3, human SERT (HEK293 membranes) (Homo sapiens, UniProt P31645); assay: Human SERT 3H-citalopram binding; conditions: HEK293 membranes expressing human SERT, rt 1 h
T3 construct: expressed in transfected cells; host or cells: HEK293
T3 sequence (P31645 whole entry): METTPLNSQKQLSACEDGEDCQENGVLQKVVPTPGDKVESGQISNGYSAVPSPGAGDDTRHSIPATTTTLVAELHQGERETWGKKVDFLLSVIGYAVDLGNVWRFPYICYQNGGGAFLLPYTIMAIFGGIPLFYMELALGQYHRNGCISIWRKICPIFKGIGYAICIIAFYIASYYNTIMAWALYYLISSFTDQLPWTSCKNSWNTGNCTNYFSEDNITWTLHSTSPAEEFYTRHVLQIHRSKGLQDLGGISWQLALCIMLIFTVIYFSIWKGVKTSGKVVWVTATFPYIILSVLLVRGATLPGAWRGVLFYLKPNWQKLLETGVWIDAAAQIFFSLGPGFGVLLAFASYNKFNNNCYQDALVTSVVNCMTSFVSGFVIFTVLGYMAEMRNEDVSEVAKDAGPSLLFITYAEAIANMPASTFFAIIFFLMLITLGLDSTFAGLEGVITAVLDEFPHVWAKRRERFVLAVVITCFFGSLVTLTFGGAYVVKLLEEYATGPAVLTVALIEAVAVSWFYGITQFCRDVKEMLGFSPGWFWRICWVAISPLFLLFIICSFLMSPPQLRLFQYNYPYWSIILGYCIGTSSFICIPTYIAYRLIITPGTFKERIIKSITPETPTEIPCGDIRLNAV
Description: Homogenized HEK293 (Human Embryonic Kidney) membranes expressing the human SERT were incubated with ^3H-citalopram (SERT) at rt for 1 h in 50 mM Tris, 120 mM NaCl, 5 mM KCl (pH 7.4). Nonspecific binding was determined in the presence of 10 μM fluoxetine for the SERT. The membranes were washed and the radioactivity was counted as above. Calculations for Ki at the SERT were based on a Kd value for ^3H-citalopram and a ligand concentration of 3.1 nM.

T1 sequence (Q9Y5N1 whole entry): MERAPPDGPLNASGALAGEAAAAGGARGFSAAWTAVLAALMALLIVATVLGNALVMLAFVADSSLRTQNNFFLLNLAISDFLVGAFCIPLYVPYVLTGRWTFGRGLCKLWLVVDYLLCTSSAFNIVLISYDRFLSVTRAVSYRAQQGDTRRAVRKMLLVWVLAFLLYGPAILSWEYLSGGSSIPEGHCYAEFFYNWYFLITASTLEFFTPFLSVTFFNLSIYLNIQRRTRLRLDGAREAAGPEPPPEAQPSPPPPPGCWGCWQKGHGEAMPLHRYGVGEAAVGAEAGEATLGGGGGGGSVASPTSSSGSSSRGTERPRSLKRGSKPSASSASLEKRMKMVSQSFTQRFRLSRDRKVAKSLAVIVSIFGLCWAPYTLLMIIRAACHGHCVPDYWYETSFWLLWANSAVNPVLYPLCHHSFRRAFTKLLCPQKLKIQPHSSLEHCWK

SMILES	pKi [1]	pKi [2]	pKi [3]
CSc1ccc(C2CN(C)Cc3cc(Oc4cccc(CN5CCCCC5)c4)ccc32)cc1 (stereo not shown) [Example 1A, 2-Methyl-4-(4-methylsulfanyl-phenyl)-7-(3-piperidin-1-ylmethyl-phenoxy)-1,2,3,4-tetrahydro-isoquinoline trifluoroacetic acid salt]	7.74	7.93	7.75
CSc1ccc(C2CN(C)Cc3cccc(Oc4cccc(CN5CCCCC5)c4)c32)cc1 (stereo not shown) [Example 1B, 2-Methyl-4-(4-methylsulfanyl-phenyl)-5-(3-piperidin-1-ylmethyl-phenoxy)-1,2,3,4-tetrahydro-isoquinoline Trifluoroacetic Acid Salt]	6.60	6.39	6.21
CSc1ccc(C2CN(C)Cc3cc(Oc4cccc(CN5CCCCC5)n4)ccc32)cc1 (stereo not shown) [Example 2, 2-Methyl-4-(4-methylsulfanyl-phenyl)-7-(6-piperidin-1-ylmethyl-pyridin-2-yloxy)-1,2,3,4-tetrahydro-isoquinoline Trifluoroacetic Acid Salt]	7.29	7.93	7.66
CSc1ccc(C2CN(C)Cc3cc(Oc4ccnc(CN5CCCCC5)c4)ccc32)cc1 (stereo not shown) [Example 3A, 2-2-Methyl-4-(4-methylsulfanyl-phenyl)-7-(2-piperidin-1-ylmethyl-pyridin-4-yloxy)-1,2,3,4-tetrahydro-isoquinoline Trifluoroacetic Acid Salt]	6.49	7.59	7.98
CSc1ccc(C2CN(C)Cc3cccc(Oc4ccnc(CN5CCCCC5)c4)c32)cc1 (stereo not shown) [Example 3B, 2-Methyl-4-(4-methylsulfanyl-phenyl)-5-(2-piperidin-1-ylmethyl-pyridin-4-yloxy)-1,2,3,4-tetrahydro-isoquinoline Trifluoroacetic Acid Salt]	6.58	6.74	6.80
CSc1ccc(C2CN(C)Cc3cccc(Oc4cncc(CN5CCCCC5)c4)c32)cc1 (stereo not shown) [Example 4B, 2-Methyl-4-(4-methylsulfanyl-phenyl)-5-(5-piperidin-1-ylmethyl-pyridin-3-yloxy)-1,2,3,4-tetrahydro-isoquinoline Trifluoroacetic Acid Salt]	6.29	6.76	6.58
CSc1ccc(C2CN(C)Cc3cc(Oc4cc(CN5CCCCC5)ccn4)ccc32)cc1 (stereo not shown) [Example 5, 2-Methyl-4-(4-methylsulfanyl-phenyl)-7-(4-piperidin-1-ylmethyl-pyridin-2-yloxy)-1,2,3,4-tetrahydro-isoquinoline]	7.46	8.06	8.62
CSc1ccc(C2CN(C)Cc3cc(Oc4nc(CN5CCCCC5)cs4)ccc32)cc1 (stereo not shown) [Example 6, 2-Methyl-4-(4-methylsulfanyl-phenyl)-7-(4-piperidin-1-ylmethyl-thiazol-2-yloxy)-1,2,3,4-tetrahydro-isoquinoline]	7.68	8.28	8.37
CSc1ccc(C2CN(C)Cc3cc(Oc4ccc(CN5CCCCC5)cn4)ccc32)cc1 (stereo not shown) [Example 7, 2-Methyl-4-(4-methylsulfanyl-phenyl)-7-(5-piperidin-1-ylmethyl-pyridin-2-yloxy)-1,2,3,4-tetrahydro-isoquinoline]	8.09	8.35	8.64
CSc1ccc(C2CN(C)Cc3cc(Oc4ccc(CN5CCCCC5)nc4)ccc32)cc1 (stereo not shown) [Example 8, 2-Methyl-4-(4-methylsulfanyl-phenyl)-7-(6-piperidin-1-ylmethyl-pyridin-3-yloxy)-1,2,3,4-tetrahydro-isoquinoline]	7.61	8.12	8.10
CSc1ccc(C2CN(C)Cc3cc(Oc4ccc(CN5CCCCC5)cc4)ccc32)cc1 (stereo not shown) [Example 9, 2-Methyl-4-(4-methylsulfanyl-phenyl)-7-(4-piperidin-1-ylmethyl-phenoxy)-1,2,3,4-tetrahydro-isoquinoline]	7.64	8.37	8.42
CSc1ccc(C2CN(C)Cc3cc(Oc4ccc(CN5CCOCC5)cn4)ccc32)cc1 (stereo not shown) [Example 10, 2-Methyl-4-(4-methylsulfanyl-phenyl)-7-(5-morpholin-4-ylmethyl-pyridin-2-yloxy)-1,2,3,4-tetrahydro-isoquinoline]	6.59	7.96	8.10
CSc1ccc(C2CN(C)Cc3cc(Oc4nc(CN5CCOCC5)cs4)ccc32)cc1 (stereo not shown) [Example 11, 2-Methyl-4-(4-methylsulfanyl-phenyl)-7-(4-morpholin-4-ylmethyl-thiazol-2-yloxy)-1,2,3,4-tetrahydro-isoquinoline]	6.70	–	–
CSc1ccc(C2CN(C)Cc3cc(Oc4ccc(CN5CCC(F)CC5)cn4)ccc32)cc1 (stereo not shown) [Example 12, 7-[5-(4-Fluoro-piperidin-1-ylmethyl)-pyridin-2-yloxy]-2-methyl-4-(4-methylsulfanyl-phenyl)-1,2,3,4-tetrahydro-isoquinoline]	6.96	7.84	8.19
CSc1ccc(C2CN(C)Cc3cc(Oc4ncc(CN5CCCCC5)s4)ccc32)cc1 (stereo not shown) [Example 13, 2-Methyl-4-(4-methylsulfanyl-phenyl)-7-(5-piperidin-1-ylmethyl-thiazol-2-yloxy)-1,2,3,4-tetrahydro-isoquinoline]	7.68	8.40	8.49
